Key:
[1] = tested on: axons of E15 DRG sensory neurons; experiment: Axonal degeneration assay in compartmented chamber cultures (degeneration index); type: cell-based, rat; conditions: for axon degeneration (axonal fragmentation, degeneration index): 24 hours
Experimental: Cell culture. Compartmented chamber (Campenot) cultures were prepared as described (see, e.g., Fenstermacher et al., Springer Protocols: Neuromethods, 103:105-124 (2015)), with modifications. Briefly, DRGs from embryonic day 15 (E15) rats of either sex were dissected and trypsinized. DRGs (1.2×10^5 cells) were plated in the center compartment of a Teflon divider (Camp10, Tyler Research; Campenot, 1982) affixed to a p35 culture dish coated with growth factor reduced Matrigel basement membrane (BD Biosciences) 1:45 in DMEM. Cultures were maintained in media consisting of Neurobasal (Invitrogen) with 2% B27 supplement (Invitrogen), 1% penicillin-streptomycin, 1% GlutaMAX (Life Technologies), 0.08% glucose, and 0.3 μM cytosine arabinoside (AraC) at 37° C., 7.5% CO2; BDNF+NGF (PeproTech) were added to the cell body compartment at a concentration of 10 ng/ml and to the axon compartment at a concentration of 100 ng/ml for 2d. On day 3, media was replaced and the AraC was omitted. On day 5, neurotrophins were removed from the cell body compartment and reduced to 1 ng/ml in the axon compartments for 3-5 days. […] For calpain inhibition experiments, 20 μM calpain inhibitor III (VWR) and paclitaxel were added simultaneously to distal axon compartment.
Axonal degeneration assay. Compartmented chamber cultures were fixed at room temperature with 4% PFA diluted 1:2 in media for 10 min, then undiluted 4% PFA for an additional 20 min. Cultures were permeabilized with 0.1% TritonX-100 for 10 min, blocked in 3% BSA and 0.1% Triton X-100 for 1 hour at room temperature, and incubated with mouse anti-Tuj1 (1:400; clone Tuj1; Covance) overnight at 4° C. Cultures were then incubated with goat anti-mouse AlexaFluor (1:1000; Invitrogen) for 1 hour at room temperature and counterstained with DAPI. Images of distal axon tips were obtained using a 40× air objective, and axonal degeneration was quantified as a degeneration index, as previously described (Cosker et al., Neuroscience, 33:5195-5207 (2013)). Apoptosis analysis was carried out on the same cultures by taking images in the cell body compartment and counting total and condensed nuclei in NIH ImageJ software by an observer blind to condition.
Protein and peptide introduction. Recombinant His-tagged Bclw, Bcl2, and BclxL proteins (R&D Systems) or control β-galactosidase protein were introduced into cell bodies or axons of compartmented chamber cultures as described (e.g., Cosker et al., Nature Neuroscience, 19:690-696 (2016)). Briefly, 1 μg/μ1 protein was introduced into cultures using 2 μl Chariot reagent (Active Motif). To confirm expression of His-tagged proteins, cell bodies and axons were lysed in nonionic detergent, and protein lysates were separated as above and blotted with the following antibodies: anti-His (1:1000; Novagen) and anti-pan-actin (1:1000; Cell Signaling Technology). FITC-tagged SAHB peptides (BH4-Bclw, BH4-Bcl2, and BH4-BclxL; stock solutions 1 mM in DMSO) were introduced into cell bodies or axons using 350 ng peptide and 2 μl of Chariot reagent diluted 1:10 in water. Control was no peptide with 2 μl of 1:10 diluted Chariot. To confirm peptide expression, cultures were processed for axonal degeneration assay as above, and FITC immunofluorescence was examined with a 40× air objective. Paclitaxel was added to cultures 1 hour after protein or peptide transfection.

bclw+/+ and bclw−/− mice = experiment: Noxious thermal sensation threshold, 50° C. hot-plate; type: in vivo, mouse; conditions: paclitaxel 4 mg/kg every other day for 8 days
Experimental: Paclitaxel treatment and behavioral testing. 2 month old age-matched bclw−/− and bclw+/+ mice (17-30 g) of either sex were injected intraperitoneally (IP) with 4 mg/kg paclitaxel (Bristol-Myers Squibb) every other day for 8 days (4 total injections). Paclitaxel was prepared as 1 part 6 mg/ml paclitaxel stock solution diluted in vehicle (1:1 v/v Cremophor EL [EMD Millipore] and dehydrated ethanol) and 2 parts sterile saline and injected at 10 μl/g. Control mice were injected with 1 part vehicle and 2 parts saline. […] For three days prior to the baseline testing, mice were weighed, trained on an automated RotaRod apparatus (4 rpm for 1 min without falling), and habituated in von Frey cages. The next two days, baseline behavioral performance was assessed and averaged. The first paclitaxel injection was given three days later, and mice were weighed and behaviorally tested 10 days after the final injection. To assay motor function, mice were placed on the RotaRod with a ramp of 4-40 rpm and 0.4 rpm/sec acceleration, and latency to fall was measured. […] Withdrawal threshold was determined to be the applied force at which the animal withdrew the stimulated paw on at least 2 of 10 applications. […] Mouse behavior was assessed by an experimenter blind to genotype and condition.

calpain = experiment: Calpain protease activity luminescence assay; type: cell-based, rat; conditions: DRG neurons treated 48 hours with paclitaxel, normalized to DMSO
Experimental: Calpain protease activity luminescence assay. DRG neurons in mass cultures were treated with vehicle (0.1% DMSO for 48h), paclitaxel (30 nM, 600 nM, or 1.2 μM for 48 hours), or calcium chloride (3 mM for 24 hours). Cultures were harvested in 1× Passive Lysis Buffer (Promega). The resulting lysate was spun 10,000×g for 5 min at 4° C., and 50 μL supernatant was combined with 50 μL Calpain-Glo Reagent (Promega) in a 96 well plate. The plate was shaken briefly and incubated for 40 min in the dark; luminescence intensity was measured with a microplate reader and normalized to protein concentration.

E15 DRG sensory neurons = experiment: Apoptosis analysis (condensed/total nuclei) in cell body compartment; type: cell-based, rat; conditions: paclitaxel to either subcellular compartment
Experimental: Cell culture. Compartmented chamber (Campenot) cultures were prepared as described (see, e.g., Fenstermacher et al., Springer Protocols: Neuromethods, 103:105-124 (2015)), with modifications. Briefly, DRGs from embryonic day 15 (E15) rats of either sex were dissected and trypsinized. DRGs (1.2×10^5 cells) were plated in the center compartment of a Teflon divider (Camp10, Tyler Research; Campenot, 1982) affixed to a p35 culture dish coated with growth factor reduced Matrigel basement membrane (BD Biosciences) 1:45 in DMEM. Cultures were maintained in media consisting of Neurobasal (Invitrogen) with 2% B27 supplement (Invitrogen), 1% penicillin-streptomycin, 1% GlutaMAX (Life Technologies), 0.08% glucose, and 0.3 μM cytosine arabinoside (AraC) at 37° C., 7.5% CO2; BDNF+NGF (PeproTech) were added to the cell body compartment at a concentration of 10 ng/ml and to the axon compartment at a concentration of 100 ng/ml for 2d. On day 3, media was replaced and the AraC was omitted. On day 5, neurotrophins were removed from the cell body compartment and reduced to 1 ng/ml in the axon compartments for 3-5 days. […]
Axonal degeneration assay. […] Images of distal axon tips were obtained using a 40× air objective, and axonal degeneration was quantified as a degeneration index, as previously described (Cosker et al., Neuroscience, 33:5195-5207 (2013)). […]

- axon degeneration (axonal fragmentation, degeneration index) ([1]; paclitaxel 30 nM added to cell body compartment): no effect
- axon degeneration (axonal fragmentation, degeneration index) ([1]; paclitaxel 30 nM added to distal axon compartment): increase axon degeneration
- axonal degeneration ([1]; paclitaxel after shRNA knockdown of Bclw): further increased axonal degeneration
- thermal pain sensitivity (hot-plate) (bclw+/+ and bclw−/− mice; bclw+/+ mice): mild thermal hyperalgesia
- thermal pain sensitivity (hot-plate) (bclw+/+ and bclw−/− mice; bclw−/− mice): more severe thermal pain sensitivity
Compound: CC(=O)O[C@H]1C(=O)[C@@]2(C)[C@H]([C@H](OC(=O)c3ccccc3)[C@]3(O)C[C@H](OC(=O)[C@H](O)[C@@H](NC(=O)c4ccccc4)c4ccccc4)C(C)=C1C3(C)C)[C@]1(OC(C)=O)CO[C@@H]1C[C@@H]2O [paclitaxel]
- calpain activity (luminescence) (calpain): increased calpain activity in a dose-dependent manner
- cell body apoptosis assessed by nuclear condensation (E15 DRG sensory neurons): did not induce cell body apoptosis
